# Biological target: T1, RORγt (Homo sapiens, UniProt P51449)
# T1 construct: Prepare 4×RORgt-LBD in 1× buffer
# T1 sequence (P51449 269-508 limits assumed): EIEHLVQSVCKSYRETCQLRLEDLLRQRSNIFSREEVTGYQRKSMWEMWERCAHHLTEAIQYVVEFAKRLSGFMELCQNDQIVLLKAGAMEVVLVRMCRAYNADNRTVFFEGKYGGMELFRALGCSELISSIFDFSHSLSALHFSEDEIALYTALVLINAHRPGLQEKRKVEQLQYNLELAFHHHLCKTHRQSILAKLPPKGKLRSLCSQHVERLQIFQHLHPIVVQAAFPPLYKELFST
# Assay: Fluorescence resonance energy transfer (FRET) assay of inhibitory activity on RORγt
# Format: biochemical
# Details: RORgt-LBD GST with SRC peptide
# Method: Fluorescence resonance energy transfer (FRET) experiment was performed to assay the inhibitory activity of the compound of the present invention on RORγt.
# 1) Preparation of DMSO stock solutions of the compounds: All compounds were dissolved in DMSO to prepare 10 mM stock solutions.
# 2) Compound storage: After the compound was dissolved in DMSO, the solution can be stored in a desiccator at room temperature for three months. For long-term storage, the solution should be put in a −20° C. refrigerator.
# 3) Preparation of working solution: • a) Positive control compound AZD0284: Starting from 500 µM, the solution was diluted serially by 3-folds with DMSO to obtain a 10-concentration gradient, each concentration with 3 replicate wells. 2 wells were pipetted. The gradiently diluted compound was diluted in a reaction buffer to obtain a 4× working solution (starting from 40 μM, diluted gradiently by 3-folds) of the positive control compound. • b) Compounds to be tested: Starting from 500 μM, the solution was diluted serially by 3-folds with DMSO to obtain a 10-concentration gradient, each concentration with 3 replicate wells. 2 wells were pipetted. The gradiently diluted compound was diluted in a reaction buffer to obtain a 4× working solution ([…], diluted gradiently by 3-folds) of the compounds to be tested. • c) Prepare a 4× negative control (8% DMSO). • d) Centrifuge the plate at 1000 rpm for 1 min.
# 1) Prepare 4× serially diluted compounds in 1× buffer.
# 2) Add 5 μl of the 4× serially diluted compound (prepared in step 1) to a 384 assay plate (784075, Greiner).
# 3) Prepare 4×RORgt-LBD in 1× buffer.
# 4) Add 5 μl of the 4×RORgt-LBD (prepared in step 3) to the 384 assay plate (prepared in step 2).
# 5) Incubate the assay plate for 15 min at room temperature, protected from light.
# 6) Prepare a 2× mixture of SRC, anti-GST Eu and streptavidin-d2 in 1× […].
# 7) Add 10 μl of the 2× mixture (prepared in step 6) to the 384 assay plate (prepared in step 4).
# 8) Centrifuge the 384 assay plates at 1000 g for 1 min.
# 9) Incubate for 3 h at room temperature, protected from light.
# 10) Read the plate at wavelengths of 665 nm and 615 nm on an Envision 2104 plate reader.
# Relative ratio (RR): Calculate the relative ratio (response value at 665 nm/response value at 615 nm-response value in blank background) of each well.
# Inhibition rate %=[1−(fluorescence detection value of the compound−fluorescence detection average of the positive compound)/(fluorescence detection average of the negative control−fluorescence detection average of the positive compound)]×100
# Calculate the IC50 and dose-response curve of the compound: The IC50 and dose-response curve of the compound were obtained via Graphpad 8.0 by calculating the inhibition rate of the compound and the log value of the compound concentration.
row,SMILES,IC50
1,"CCS(=O)(=O)c1ccc(CC(=O)Nc2ccc(C(=O)C(C)(C)c3ccccn3)cn2)cc1 [Compound I-71, 2-(4-(ethylsulfonyl)phenyl)-N-(5-(2-methyl-2-(pyridin-2-yl)propionyl)pyridin-2-yl)acetamide]",50 to 100 nM
2,"CCS(=O)(=O)c1ccc(CC(=O)Nc2ccc(C(=O)C(C)(C)c3cccc(C#N)c3)nc2)cc1 [Compound I-9, N-[6-[2-(3-cyanophenyl)-2-methylpropionyl]-3-pyridyl]-2-(4-ethylsulfonylphenyl)acetamide]",1 to 10 nM
3,"CCS(=O)(=O)c1ccc(CC(=O)Nc2ccc(C(=O)C(C)(C)c3nc(C)c(C)o3)nc2)cc1 [Compound I-56, N-(6-(2-(4,5-dimethyloxazol-2-yl)-2-methylpropionyl)pyridin-3-yl)-2-(4-(ethylsulfonyl)phenyl) acetamide]",10 to 50 nM
4,"CCS(=O)(=O)c1ccc(CC(=O)Nc2ccc(C(=O)C(C)(C)c3ncc(F)cc3F)nc2)cc1 [Compound I-41, N-[6-[2-(3,5-difluoro-2-pyridyl)-2-methyl-propionyl]-3-pyridyl]-2-(4-ethylsulfonylphenyl)acetamide]",1 to 10 nM
5,"CCS(=O)(=O)c1ccc(CC(=O)Nc2ccc(C(=O)C3(c4ccccn4)CC3)nc2)cc1 [Compound I-45, 2-(4-(ethylsulfonyl)phenyl)-N-(6-(1-(pyridin-2-yl)cyclopropane-1-carbonyl)pyridin-3-yl)acetamide]",100 to 1000 nM
6,"CCS(=O)(=O)c1ccc(CC(=O)Nc2ccc(C(=O)C(C)(C)c3ccc(F)cc3F)nc2)cc1 [Compound I-12, N-(6-(2-(2,4-difluorophenyl)-2-methylpropionyl)pyridin-3-yl)-2-(4-(ethylsulfonyl)phenyl)acetamide]",1 to 10 nM
7,"CCS(=O)(=O)c1ccc(CC(=O)Nc2ccc(C(=O)C(C)(C)c3cc(C#N)ccn3)nc2)cc1 [Compound I-40, N-(6-(2-(4-cyanopyridin-2-yl)-2-methylpropionyl)pyridin-3-yl)-2-(4-(ethylsulfonyl)phenyl)acetamide]",1 to 10 nM
8,CNS(=O)(=O)c1ccc(CC(=O)Nc2ccc(C(=O)C(C)(C)c3ccc(F)c(Cl)c3)nc2)cc1 [Compound I-47],1 to 10 nM
9,"CNS(=O)(=O)c1ccc(CC(=O)Nc2ccc(C(=O)C3(c4ccc(F)cc4)CC(F)(F)C3)nc2)cc1 [Compound I-75, N-(6-(3,3-difluoro-1-(4-fluorophenyl)cyclobutane-1-carbonyl)pyridin-3-yl)-2-(4-(N-methylsulfamoyl)phenyl)acetamide]",1 to 10 nM
10,CCS(=O)(=O)c1ccc(CC(=O)Nc2ccc(C(=O)C(C)(C)c3nc(C)co3)nc2)cc1 [Compound I-62],50 to 100 nM
11,"CCS(=O)(=O)c1ccc(CC(=O)Nc2ccc(C(=O)C(C)(C)c3cnn(C)c3)nc2)cc1 [Compound I-23, 2-(4-(ethylsulfonyl)phenyl)-N-(6-(2-methyl-2-(1-methyl-1H-pyrazol-4-yl)propionyl)pyridin-3-yl)acetamide]",10 to 50 nM
12,"CCn1cc(C(C)(C)C(=O)c2ccc(NC(=O)Cc3ccc(S(=O)(=O)CC)cc3)cn2)cn1 [Compound I-42, N-(6-(2-(1-ethyl-1H-pyrazol-4-yl)-2-methylpropionyl)pyridin-3-yl)-2-(4-(ethylsulfonyl)phenyl) acetamide]",10 to 50 nM
13,"CCS(=O)(=O)c1ccc(CC(=O)Nc2ccc(C(=O)C3(c4ccccn4)CC(F)(F)C3)nc2)cc1 [Compound I-54, N-(6-(3,3-difluoro-1-(pyridin-2-yl)cyclobutane-1-carbonyl)pyridin-3-yl)-2-(4-(ethylsulfonyl)phenyl)acetamide]",1 to 10 nM
14,"[2H]C([2H])([2H])n1cc(C(C)(C)C(=O)c2ccc(NC(=O)Cc3ccc(S(=O)(=O)CC)cc3)cn2)cn1 [Compound I-43, 2-(4-(ethylsulfonyl)phenyl)-N-(6-(2-methyl-2-(1-(methyl-D3)-1H-pyrazol-4-yl)propionyl)pyridin-3-yl)acetamide]",10 to 50 nM
15,CCS(=O)(=O)c1ccc(CC(=O)Nc2ccc(C(=O)C(C)(C)c3cccc(C)n3)nc2)cc1 [Compound I-57],1 to 10 nM
16,CCS(=O)(=O)c1ccc(CC(=O)Nc2ccc(C(=O)C(C)(C)c3ccc(C(F)(F)F)nc3)nc2)cc1 [Compound I-50],50 to 100 nM

row,SMILES,IC50
1,"CCS(=O)(=O)c1ccc(CC(=O)Nc2ccc(C(=O)C(C)(C)c3cnn(CC(F)(F)F)c3)nc2)cc1 [Compound I-33, 2-(4-(ethylsulfonyl)phenyl)-N-(6-(2-methyl-2-(1-(2,2,2-trifluoroethyl)-1H-pyrazol-4-yl)propionyl)pyridin-3-yl)acetamide]",10 to 50 nM
2,"CCS(=O)(=O)c1ccc(CC(=O)Nc2ccc(C(=O)C(C)(C)c3cccc(Br)c3)nc2)cc1 [Compound I-10, N-[6-[2-(3-bromophenyl)-2-methylpropionyl]-3-pyridyl]-2-(4-ethylsulfonylphenyl)acetamide]",1 to 10 nM
3,"CCS(=O)(=O)c1ccc(CC(=O)Nc2ccc(C(=O)C(C)c3ccccn3)nc2)cc1 (centres unmarked) [Compound I-73, 2-(4-(ethylsulfonyl)phenyl)-N-(6-(2-(pyridin-2-yl)propanoyl)pyridin-3-yl)acetamide]",10 to 50 nM
4,"CCS(=O)(=O)c1ccc(CC(=O)Nc2ccc(C(=O)C(C)(C)c3ccc(Cl)cc3)nc2)cc1 [Compound I-3, N-[6-[2-(4-chlorophenyl)-2-methylpropionyl]-3-pyridyl]-2-(4-ethylsulfonylphenyl)acetamide]",10 to 50 nM
5,"CCS(=O)(=O)c1ccc(CC(=O)Nc2ccc(C(=O)C(C)(C)c3cc(Cl)cc(C#N)c3)nc2)cc1 [Compound I-27, N-(6-(2-(3-chloro-5-cyanophenyl)-2-methylpropionyl)pyridin-3-yl)-2-(4-(ethylsulfonyl)phenyl) acetamide]",1 to 10 nM
6,CCS(=O)(=O)c1ccc(CC(=O)Nc2ccc(C(=O)C(C)(C)c3cccc(C#N)n3)nc2)cc1 [Compound I-65],1 to 10 nM
7,CCS(=O)(=O)c1ccc(CC(=O)Nc2ccc(C(=O)C(C)(C)c3ccc(C(F)(F)F)cc3)nc2)cc1 [Compound I-13],1 to 10 nM
8,CCS(=O)(=O)c1ccc(CC(=O)Nc2ccc(C(=O)C(c3ccccn3)C(C)C)nc2)cc1 (centres unmarked) [Compound I-74],10 to 50 nM
9,CCS(=O)(=O)c1ccc(CC(=O)Nc2ccc(C(=O)C(C)(C)c3cccc(C(F)(F)F)n3)nc2)cc1 [Compound I-76],1 to 10 nM
10,"CCS(=O)(=O)c1ccc(CC(=O)Nc2ccc(C(=O)C(C)(C)c3ccc(F)c(Cl)c3)nc2)cc1 [Compound I-6, N-(6-(2-(3-chloro-4-fluorophenyl)-2-methylpropionyl)pyridin-3-yl)-2-(4-(ethylsulfonyl)phenyl) acetamide]",1 to 10 nM
11,"CCS(=O)(=O)c1ccc(CC(=O)Nc2ccc(C(=O)C(C)(C)c3ccccn3)nc2)cc1 [Compound I-20, 2-(4-(ethylsulfonyl)phenyl)-N-(6-(2-methyl-2-(pyridin-2-yl)propanoyl)pyridin-3-yl)acetamide]",10 to 50 nM
12,"CCS(=O)(=O)c1ccc(CC(=O)Nc2ccc(C(=O)C3(c4ccccn4)CCC3)nc2)cc1 [Compound I-46, 2-(4-(ethylsulfonyl)phenyl)-N-(6-(1-(pyridin-2-yl)cyclobutane-1-carbonyl)pyridin-3-yl)acetamide]",10 to 50 nM
13,CCS(=O)(=O)c1ccc(CC(=O)Nc2ccc(C(=O)C(C)(C)c3ccc(C)cn3)nc2)cc1 [Compound I-30],1 to 10 nM
14,CCS(=O)(=O)c1ccc(CC(=O)Nc2ccc(C(=O)C3(c4ccc(Cl)cc4)CC(F)(F)C3)nc2)cc1 [Compound I-35],1 to 10 nM
15,"CCS(=O)(=O)c1ccc(CC(=O)Nc2ccc(C(=O)C(C)(C)c3ncc(C)cn3)nc2)cc1 [Compound I-59, 2-(4-(ethylsulfonyl)phenyl)-N-(6-(2-methyl-2-(5-methylpyrimidin-2-yl)propionyl)pyridin-3-yl) acetamide]",10 to 50 nM
16,"CCS(=O)(=O)c1ccc(CC(=O)Nc2ccc(C(=O)C(C)(C)c3cccc(Cl)c3)nc2)cc1 [Compound I-1, N-[6-[2-(3-chlorophenyl)-2-methyl-propionyl]-3-pyridyl]-2-(4-ethylsulfonylphenyl)acetamide]",1 to 10 nM

# Source: patent publication US20240317686A1, “RORyT MODULATOR, AND PREPARATION METHOD THEREFOR AND APPLICATION THEREOF” (SHANGHAI PHARMACEUTICALS HOLDING CO., LTD., priority 2020, published 2024)
